System: subjects with moderately to severely active RA who have an inadequate response to methotrexate (MTX)
Test: Study 1 (add-on to MTX) - Aspartate Aminotransferase (AST) levels
Format: in vivo, human
Procedure: Double-blind, placebo-controlled add on study in subjects with moderately to severely active RA who have an inadequate response to methotrexate (MTX) (oral or parenteral).
595 subjects randomized to one of 6 dose regimens of Compound 1 (dosed as [Compound 1:HCl:3H2O]) (3 dose levels administered either once or twice daily) or placebo on top of each subject's stable dose of MTX.
Compound 1 (dosed as [Compound 1:HCl:3H2O]) is dosed for twelve weeks once daily (q.d.) (50 mg, 100 mg or 200 mg) or twice daily (b.i.d.) (25 mg, 50 mg or 100 mg); or placebo.
At Week 12, the subjects on placebo who have not achieved 20% improvement in swollen joint count (SJC66) and tender joint count (TJC68) are re-randomized automatically to receive Compound 1 (dosed as a [Compound 1:HCl:3H2O]) either at 100 mg q.d. or 50 mg b.i.d. doses in a blinded fashion; subjects on 50 mg q.d. who have not achieved 20% improvement in SJC66 and TJC68 will be assigned to 100 mg q.d. and subjects on 25 mg b.i.d. that have not achieved a 20% improvement in SJC66 and TJC68 will be assigned to 50 mg b.i.d. Subjects who switch treatment at week 12 are handled as if they discontinued at week 12 for the purpose of statistical analysis, whereas subjects in the other groups will maintain their randomized treatment until Week 24.
AST levels determination is available at Quest Diagnostics, Clinical Trials, Quest House, 125-135 Staines Road, Hounslow, Middlesex, TW3 3JB, United Kingdom under Catalogue n#84450. For Study 3, the data are obtained at BARC Europe, 3B,Industrie Park, Zwijnaarde, B-9052 Ghent, Belgium.
AST catalyzes the transamination of aspartate and 2-oxoglutarate, forming L-glutamate and oxalacetate. The oxalacetate is reduced to L-malate by malate dehydrogenase, whilst NADH is converted to NAD+, measured spectrophotometrically. Guidelines for the AST value have been issued by the association for Clinical Biochemistry and Laboratory Medicine, 130-132 Tooley Street LONDON SE1 2TU, united Kingdom, wherein the AST value should be below 34 U/l in Female and below 45 U/L in male. As disclosed in the respective study protocols for Study 1 or 2, at week 12, depending on the outcome of their treatment, the subjects may be continued in their initial treatment course, or reassigned to another treatment group in a randomized blinded fashion until week 24. Therefore, the number of subjects (N) for the period of either 12 weeks, or 24 weeks is provided to reflect this redistribution at week 12.

[1] = 12 weeks results, 50 mg q.d., week 1
[2] = 12 weeks results, 50 mg q.d., week 2
[3] = 12 weeks results, 50 mg q.d., week 4
[4] = 12 weeks results, 50 mg q.d., week 8
[5] = 12 weeks results, 50 mg q.d., week 12
[6] = 12 weeks results, 100 mg q.d., week 1
[7] = 12 weeks results, 100 mg q.d., week 2
[8] = 12 weeks results, 100 mg q.d., week 4
[9] = 12 weeks results, 100 mg q.d., week 8
[10] = 12 weeks results, 100 mg q.d., week 12
[11] = 12 weeks results, 200 mg q.d., week 1
[12] = 12 weeks results, 200 mg q.d., week 2
[13] = 12 weeks results, 200 mg q.d., week 4
[14] = 12 weeks results, 200 mg q.d., week 8
[15] = 12 weeks results, 200 mg q.d., week 12
[16] = 12 weeks results, 2 × 25 mg b.i.d., week 1
[17] = 12 weeks results, 2 × 25 mg b.i.d., week 2
[18] = 12 weeks results, 2 × 25 mg b.i.d., week 4
[19] = 12 weeks results, 2 × 25 mg b.i.d., week 8
[20] = 12 weeks results, 2 × 25 mg b.i.d., week 12
[21] = 12 weeks results, 2 × 50 mg b.i.d., week 1
[22] = 12 weeks results, 2 × 50 mg b.i.d., week 2
[23] = 12 weeks results, 2 × 50 mg b.i.d., week 4
[24] = 12 weeks results, 2 × 50 mg b.i.d., week 8
[25] = 12 weeks results, 2 × 50 mg b.i.d., week 12
[26] = 12 weeks results, 2 × 100 mg b.i.d., week 1
[27] = 12 weeks results, 2 × 100 mg b.i.d., week 2
[28] = 12 weeks results, 2 × 100 mg b.i.d., week 4
[29] = 12 weeks results, 2 × 100 mg b.i.d., week 8
[30] = 12 weeks results, 2 × 100 mg b.i.d., week 12
[31] = 24 weeks results, continued 25 mg b.i.d., week 1
[32] = 24 weeks results, continued 25 mg b.i.d., week 2
[33] = 24 weeks results, continued 25 mg b.i.d., week 4
[34] = 24 weeks results, continued 25 mg b.i.d., week 8
[35] = 24 weeks results, continued 25 mg b.i.d., week 12
[36] = 24 weeks results, continued 25 mg b.i.d., week 16
[37] = 24 weeks results, continued 25 mg b.i.d., week 20
[38] = 24 weeks results, continued 25 mg b.i.d., week 24
[39] = 24 weeks results, continued 50 mg b.i.d., week 1
[40] = 24 weeks results, continued 50 mg b.i.d., week 2
[41] = 24 weeks results, continued 50 mg b.i.d., week 4
[42] = 24 weeks results, continued 50 mg b.i.d., week 8
[43] = 24 weeks results, continued 50 mg b.i.d., week 12
[44] = 24 weeks results, continued 50 mg b.i.d., week 16
[45] = 24 weeks results, continued 50 mg b.i.d., week 20
[46] = 24 weeks results, continued 50 mg b.i.d., week 24
[47] = 24 weeks results, continued 50 mg q.d., week 1
[48] = 24 weeks results, continued 50 mg q.d., week 2
[49] = 24 weeks results, continued 50 mg q.d., week 4
[50] = 24 weeks results, continued 50 mg q.d., week 8

Compound: O=C(Nc1nc2cccc(-c3ccc(CN4CCS(=O)(=O)CC4)cc3)n2n1)C1CC1 [Compound 1, cyclopropanecarboxylic acid {5-[4-(1,1-dioxo-thiomorpholin-4-ylmethyl)-phenyl]-[1,2,4]triazolo[1,5-a]pyridin-2-yl}-amide]
- Study 1 - AST Mean CFB [1]: 1 IU/L
- Study 1 - AST Mean percentage CFB [1]: 7%
- Study 1 - AST Mean CFB [2]: 0 IU/L
- Study 1 - AST Mean percentage CFB [2]: 5%
- Study 1 - AST Mean CFB [3]: 0 IU/L
- Study 1 - AST Mean percentage CFB [3]: 5%
- Study 1 - AST Mean CFB [4]: 0 IU/L
- Study 1 - AST Mean percentage CFB [4]: 7%
- Study 1 - AST Mean CFB [5]: 1 IU/L
- Study 1 - AST Mean percentage CFB [5]: 10%
- Study 1 - AST Mean CFB [6]: 3 IU/L
- Study 1 - AST Mean percentage CFB [6]: 14%
- Study 1 - AST Mean CFB [7]: 1 IU/L
- Study 1 - AST Mean percentage CFB [7]: 9%
- Study 1 - AST Mean CFB [8]: 2 IU/L
- Study 1 - AST Mean percentage CFB [8]: 11%
- Study 1 - AST Mean CFB [9]: 3 IU/L
- Study 1 - AST Mean percentage CFB [9]: 17%
- Study 1 - AST Mean CFB [10]: 2 IU/L
- Study 1 - AST Mean percentage CFB [10]: 16%
- Study 1 - AST Mean CFB [11]: 3 IU/L
- Study 1 - AST Mean percentage CFB [11]: 16%
- Study 1 - AST Mean CFB [12]: 2 IU/L
- Study 1 - AST Mean percentage CFB [12]: 13%
- Study 1 - AST Mean CFB [13]: 3 IU/L
- Study 1 - AST Mean percentage CFB [13]: 19%
- Study 1 - AST Mean CFB [14]: 5 IU/L
- Study 1 - AST Mean percentage CFB [14]: 27%
- Study 1 - AST Mean CFB [15]: 5 IU/L
- Study 1 - AST Mean percentage CFB [15]: 29%
- Study 1 - AST Mean CFB [16]: 0 IU/L
- Study 1 - AST Mean percentage CFB [16]: 3%
- Study 1 - AST Mean CFB [17]: 0 IU/L
- Study 1 - AST Mean percentage CFB [17]: 6%
- Study 1 - AST Mean CFB [18]: 0 IU/L
- Study 1 - AST Mean percentage CFB [18]: 6%
- Study 1 - AST Mean CFB [19]: 0 IU/L
- Study 1 - AST Mean percentage CFB [19]: 10%
- Study 1 - AST Mean CFB [20]: 2 IU/L
- Study 1 - AST Mean percentage CFB [20]: 14%
- Study 1 - AST Mean CFB [21]: 1 IU/L
- Study 1 - AST Mean percentage CFB [21]: 6%
- Study 1 - AST Mean CFB [22]: 0 IU/L
- Study 1 - AST Mean percentage CFB [22]: 6%
- Study 1 - AST Mean CFB [23]: 2 IU/L
- Study 1 - AST Mean percentage CFB [23]: 14%
- Study 1 - AST Mean CFB [24]: 2 IU/L
- Study 1 - AST Mean percentage CFB [24]: 14%
- Study 1 - AST Mean CFB [25]: 2 IU/L
- Study 1 - AST Mean percentage CFB [25]: 17%
- Study 1 - AST Mean CFB [26]: 1 IU/L
- Study 1 - AST Mean percentage CFB [26]: 10%
- Study 1 - AST Mean CFB [27]: 2 IU/L
- Study 1 - AST Mean percentage CFB [27]: 14%
- Study 1 - AST Mean CFB [28]: 3 IU/L
- Study 1 - AST Mean percentage CFB [28]: 19%
- Study 1 - AST Mean CFB [29]: 2 IU/L
- Study 1 - AST Mean percentage CFB [29]: 17%
- Study 1 - AST Mean CFB [30]: 3 IU/L
- Study 1 - AST Mean percentage CFB [30]: 20%
- Study 1 - AST Mean CFB [31]: 0.7 IU/L
- Study 1 - AST Mean percentage CFB [31]: 6.7%
- Study 1 - AST Mean CFB [32]: 0.7 IU/L
- Study 1 - AST Mean percentage CFB [32]: 7.1%
- Study 1 - AST Mean CFB [33]: 1.0 IU/L
- Study 1 - AST Mean percentage CFB [33]: 8.6%
- Study 1 - AST Mean CFB [34]: 1.6 IU/L
- Study 1 - AST Mean percentage CFB [34]: 14.0%
- Study 1 - AST Mean CFB [35]: 2.2 IU/L
- Study 1 - AST Mean percentage CFB [35]: 16.4%
- Study 1 - AST Mean CFB [36]: 1.4 IU/L
- Study 1 - AST Mean percentage CFB [36]: 12.6%
- Study 1 - AST Mean CFB [37]: 1.1 IU/L
- Study 1 - AST Mean percentage CFB [37]: 10.8%
- Study 1 - AST Mean CFB [38]: 1.7 IU/L
- Study 1 - AST Mean percentage CFB [38]: 14.0%
- Study 1 - AST Mean CFB [39]: 0.5 IU/L
- Study 1 - AST Mean percentage CFB [39]: 5.7%
- Study 1 - AST Mean CFB [40]: 0.4 IU/L
- Study 1 - AST Mean percentage CFB [40]: 5.5%
- Study 1 - AST Mean CFB [41]: 1.8 IU/L
- Study 1 - AST Mean percentage CFB [41]: 14.4%
- Study 1 - AST Mean CFB [42]: 1.7 IU/L
- Study 1 - AST Mean percentage CFB [42]: 14.0%
- Study 1 - AST Mean CFB [43]: 2.4 IU/L
- Study 1 - AST Mean percentage CFB [43]: 17.1%
- Study 1 - AST Mean CFB [44]: 1.9 IU/L
- Study 1 - AST Mean percentage CFB [44]: 13.7%
- Study 1 - AST Mean CFB [45]: 3.4 IU/L
- Study 1 - AST Mean percentage CFB [45]: 20.7%
- Study 1 - AST Mean CFB [46]: 1.5 IU/L
- Study 1 - AST Mean percentage CFB [46]: 11.1%
- Study 1 - AST Mean CFB [47]: 0.8 IU/L
- Study 1 - AST Mean percentage CFB [47]: 7.5%
- Study 1 - AST Mean CFB [48]: −0.2 IU/L
- Study 1 - AST Mean percentage CFB [48]: 5.7%
- Study 1 - AST Mean CFB [49]: −0.4 IU/L
- Study 1 - AST Mean percentage CFB [49]: 5.2%
- Study 1 - AST Mean CFB [50]: 0.4 IU/L
- Study 1 - AST Mean percentage CFB [50]: 9.0%

Reference: patent US20180200257A1, “METHODS FOR THE TREATMENT OF INFLAMMATORY DISORDERS” (Galapagos NV, priority 2015, published 2018)
